# Laboratory results reported in patent US8772481B2, “Aza- and diaza-phthalazine compounds as P38 map kinase modulators and methods of use thereof” (Amgen Inc., priority 2008, dated 2014).
# How the values were obtained:
# human p38α = human p38α (Homo sapiens (Human), UniProt Q16539); experiment: Purified and activated recombinant human p38α HTRF assay; format: biochemical; conditions: 50 μM ATP, read-out: p38a IC50
# Experimental: Purified and Activated Recombinant Human p38α Assay
# Kinase reaction buffer for p38α HTRF assays consists of 50 mM Tris-pH 7.5, 5 mM MgCl2, 0.1 mg/mL BSA, 100 μM Na3VO4 and 0.5 mM DTT.
# HTRF detection buffer contains 100 mM HEPES-pH 7.5, 100 mM NaCl, 0.1% BSA, 0.05% Tween-20, and 10 mM EDTA.
# Serial Dilution of Compounds:
# Compounds were dissolved in 100% DMSO and serially diluted (3 fold, 10 point) in a polypropylene 96-well microtiter plate (drug plate). The final starting concentration of compounds in the p38α enzymatic assays was 1 μM. Columns 6 and 12 (HI controls and LO controls respectively) in the drug plate were reserved as controls and contained only DMSO.
# The p38α kinase reactions were carried out in a polypropylene 96-well black round bottom assay plate in total volume of 30 μL kinase reaction buffer. Appropriate concentration of purified and activated enzyme (recombinant human) was mixed with indicated concentration of ATP and 100 nM GST-ATF2-Avitag, in the presence or absence (HI control) of Compound. See table below for actual concentrations. In the absence of substrate, the background was measured as LO control. The reaction was allowed to incubate for 1 hour at RT.
# Assay Reagent Concentrations:
# The final reagent concentrations were 1 nM p38α and 50 μM ATP.
# After 60 minutes incubation at room temperature, the assay plate was read in a Discovery Plate Reader. The wells were excited with coherent 320 nm light and the ratio of delayed ([…] post excitation) emissions at […] (native europium fluorescence) and 665 nm (europium fluorescence transferred to allophycocyanin—an index of substrate phosphorylation) was determined (Park et al, 1999).
# The proportion of substrate phosphorylated in the kinase reaction in the presence of compound compared with that phosphorylated in the presence of DMSO vehicle alone (HI control) was calculated using the formula: % control (POC)=(compound−average LO)/(average HI−average LO)*100. Data (consisting of POC and inhibitor concentration in μM) was fitted to a 4-parameter equation (y=A+((B−A)/(1+((x/C)^D))), where A is the minimum y (POC) value, B is the maximum y (POC), C is the x (compound concentration) at the point of inflection and D is the slope factor, using a Levenburg-Marquardt non-linear regression algorithm.
# The inhibition constant (Ki) of the inhibitor was estimated from the IC50 (compound concentration at the point of inflection C) using the Cheng-Prussof equation: Ki=IC50/(1+S/Km), where S is the ATP substrate concentration, and Km is the Michaelis constant for ATP as determined experimentally. All results were expressed as the mean±the standard error of the mean. Data acquisition and non-linear regression algorithms were performed using Activity Base v5.2 and XL-fit software v4.1 respectively. All data was archived using Activity Base v5.2 software.
# [1] = system: TNF-α induced IL-8 in human whole blood; experiment: Inhibition of TNF-α induced IL-8 in 50% human whole blood; format: cell-based; conditions: 1 nM TNF-α, secreted IL-8, read-out: WB TNF/IL8 IC50
# Experimental: Inhibition of TNF-α Induced IL-8 in 50% Human Whole Blood
# Test compounds were evaluated in vitro for the ability to inhibit the production of secreted IL-8 by whole blood activated with TNF-α. Fresh human whole blood was obtained from healthy, non-medicated volunteers in sodium heparin tubes.
# Compound Dilution—Assay Procedure
# Test compounds are serially diluted 1:3 in DMSO and then diluted 1:250 into R10 (RPMI 1640, 10% human serum AB, 1× pen/strep/glutamine) to the 4× working concentration to be used in the assay. 100 ul heparinized whole blood is plated into wells of 96 well flat bottom plates. 50 ul of either 4× compound or DMSO control (Final DMSO concentration is 0.1%) are added to the appropriate wells. Plates are incubated for 1 hour at 37 degrees Celsius. 50 ul of 4×TNF-α (4 nM TNF-α, for a final concentration of 1 nM) or control (media alone) is added to the appropriate wells (Total volume=200 ul). Plates are incubated overnight (16-18 hours). 100 ul of supernatant is collected and stored in 96-well round bottom polypropylene plates at −80 degrees Celsius or assayed immediately for IL-8.
# Cytokines are measured on antibody (Ab) sandwich ECL based 96-well detection plates. 20 ul of supernatant are added to plate and plate is sealed and shaken at RT for 1 hour. 130 ul of detection Ab cocktail is added and plates are sealed and shaken for 1 hour in the dark at RT. Plates are read on MSD Sector HTS instrument. Data are analyzed and IC50 values generated using Activity Base and Xl-fit programs.
# human p38α, sequence (Q16539 whole entry): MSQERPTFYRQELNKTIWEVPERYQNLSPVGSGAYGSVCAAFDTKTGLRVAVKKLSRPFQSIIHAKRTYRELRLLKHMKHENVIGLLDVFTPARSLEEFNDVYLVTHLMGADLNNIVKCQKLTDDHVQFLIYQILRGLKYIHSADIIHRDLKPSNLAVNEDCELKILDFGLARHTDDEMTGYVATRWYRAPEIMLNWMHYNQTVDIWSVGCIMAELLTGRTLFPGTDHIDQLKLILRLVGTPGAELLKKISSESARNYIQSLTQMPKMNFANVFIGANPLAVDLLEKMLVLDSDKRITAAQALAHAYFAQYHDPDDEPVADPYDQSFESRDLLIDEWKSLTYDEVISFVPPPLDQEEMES
compound,measurement,setting,value
"Fc1ccc(Nc2ccc3c(-c4ccc(F)cc4F)nncc3n2)c(F)c1 [Example 10, N,5-bis(2,4-difluorophenyl)pyrido[2,3-d]pyridazin-2-amine]",IC50,human p38α,0.3 nM
same,IC50,[1],2.1 nM
"O=C(c1cccc(-c2nncc3nc(Nc4ccc(F)cc4F)ccc23)c1)N1CCOCC1 [Example 11, N-(2,4-difluorophenyl)-5-(3-(4-morpholinylcarbonyl)phenyl)pyrido[2,3-d]pyridazin-2-amine]",IC50,human p38α,45 nM
same,IC50,[1],79 nM
"Cc1ccccc1-c1nncc2nc(Oc3ccc(F)cc3)ccc12 [Example 19, 2-(4-fluorophenoxy)-5-(2-methylphenyl)pyrido[2,3-d]pyridazine]",IC50,human p38α,0.9 nM
same,IC50,[1],5.9 nM
"Cc1ccc(C(N)=O)cc1-c1nncc2nc(Oc3ccc(F)cc3)ccc12 [Example 20, 3-(2-(4-fluorophenoxy)pyrido[2,3-d]pyridazin-5-yl)-4-methylbenzamide]",IC50,human p38α,1.2 nM
same,IC50,[1],3.1 nM
"Fc1ccc(Nc2ccc3c(-c4cn[nH]c4)nncc3n2)c(F)c1 [Example 13, N-(2,4-difluorophenyl)-5-(1H-pyrazol-4-yl)pyrido[2,3-d]pyridazin-2-amine]",IC50,human p38α,3.5 nM
same,IC50,[1],2.3 nM
"Cc1cc(S(C)(=O)=O)ccc1-c1nncc2nc(Oc3ccc(F)cc3F)ccc12 [Example 17, 2-(2,4-difluorophenoxy)-5-(2-methyl-4-(methylsulfonyl)phenyl)pyrido[2,3-d]pyridazine]",IC50,human p38α,0.7 nM
same,IC50,[1],12 nM
"Fc1ccc(Nc2ccc3c(N4CCOCC4)nncc3n2)c(F)c1 [Example 3, N-(2,4-difluorophenyl)-5-(4-morpholinyl)pyrido[2,3-d]pyridazin-2-amine]",IC50,human p38α,4 nM
same,IC50,[1],7.6 nM
"Cc1n[nH]cc1-c1nncc2nc(Nc3ccc(F)cc3F)ccc12 [Example 14, N-(2,4-difluorophenyl)-5-(3-methyl-1H-pyrazol-4-yl)pyrido[2,3-d]pyridazin-2-amine]",IC50,human p38α,1.1 nM
same,IC50,[1],2.7 nM
"Cc1cc(F)ccc1Oc1ccc2c(-c3ccccc3C)nncc2n1 [Example 22, 2-(4-fluoro-2-methylphenoxy)-5-(2-methylphenyl)pyrido[2,3-d]pyridazine]",IC50,human p38α,168 nM
same,IC50,[1],620 nM
"Cc1cc(S(C)(=O)=O)ccc1-c1nncc2nc(Nc3ccc(F)cc3)ccc12 [Example 9, N-(4-fluorophenyl)-5-(2-methyl-4-(methylsulfonyl)phenyl)pyrido[2,3-d]pyridazin-2-amine]",IC50,human p38α,0.9 nM
same,IC50,[1],9 nM
"Cc1noc(C)c1-c1nncc2nc(Oc3ccc(F)cc3F)ccc12 [Example 21, 2-(2,4-difluorophenoxy)-5-(3,5-dimethyl-4-isoxazolyl)pyrido[2,3-d]pyridazine]",IC50,human p38α,6.5 nM
same,IC50,[1],43 nM
"Cc1noc(C)c1-c1nncc2nc(Nc3ccc(F)cc3F)ccc12 [Example 15, N-(2,4-difluorophenyl)-5-(3,5-dimethyl-4-isoxazolyl)pyrido[2,3-d]pyridazin-2-amine]",IC50,human p38α,7.1 nM
same,IC50,[1],10 nM
"Cc1ccc(C(N)=O)cc1-c1nncc2nc(Oc3ccc(F)cc3F)ccc12 [Example 5, 3-(2-(2,4-difluorophenoxy)pyrido[2,3-d]pyridazin-5-yl)-4-methylbenzamide]",IC50,human p38α,0.3 nM
same,IC50,[1],1 nM
"Cc1cc(S(C)(=O)=O)ccc1-c1nncc2nc(Nc3ccc(F)cc3F)ccc12 [Example 7, N-(2,4-difluorophenyl)-5-(2-methyl-4-(methylsulfonyl)phenyl)pyrido[2,3-d]pyridazin-2-amine]",IC50,human p38α,0.5 nM
same,IC50,[1],2.6 nM
"Cn1cc(-c2nncc3nc(Nc4ccc(F)cc4F)ccc23)cn1 [Example 12, N-(2,4-difluorophenyl)-5-(1-methyl-1H-pyrazol-4-yl)pyrido[2,3-d]pyridazin-2-amine]",IC50,human p38α,5.6 nM
same,IC50,[1],13 nM
"Cc1ccccc1-c1nncc2nc(Nc3ccc(F)cc3F)ccc12 [Example 6, N-(2,4-difluorophenyl)-5-(2-methylphenyl)pyrido[2,3-d]pyridazin-2-amine]",IC50,human p38α,0.5 nM
same,IC50,[1],1.1 nM
"Cc1cc(F)ccc1Oc1ccc2c(-c3cc(C(N)=O)ccc3C)nncc2n1 [Example 23, 3-(2-(4-fluoro-2-methylphenoxy)pyrido[2,3-d]pyridazin-5-yl)-4-methylbenzamide]",IC50,human p38α,417 nM
same,IC50,[1],1030 nM
"N-(2,4-difluorophenyl)-5-(3,5-dimethyl-1H-pyrazol-4-yl)pyrido[2,3-d]pyridazin-2-amine [Example 2]",IC50,human p38α,1.6 nM
same,IC50,[1],1.8 nM
"Fc1ccc(Oc2ccc3c(-c4cn[nH]c4)nncc3n2)c(F)c1 [Example 18, 2-(2,4-difluorophenoxy)-5-(1H-pyrazol-4-yl)pyrido[2,3-d]pyridazine]",IC50,human p38α,5.1 nM
same,IC50,[1],24 nM
"Cc1ncccc1-c1nncc2nc(Nc3ccc(F)cc3F)ccc12 [Example 8, N-(2,4-difluorophenyl)-5-(2-methyl-3-pyridinyl)pyrido[2,3-d]pyridazin-2-amine]",IC50,human p38α,1.2 nM
same,IC50,[1],2.6 nM
"Cc1ccccc1-c1nncc2nc(Oc3ccc(F)cc3F)ccc12 [Example 16, 2-(2,4-difluorophenoxy)-5-(2-methylphenyl)pyrido[2,3-d]pyridazine]",IC50,human p38α,0.2 nM
same,IC50,[1],2.3 nM
